# Patent US20120202849A1, “PHARMACEUTICAL COMPOSITIONS FOR THE TREATMENT/PROPHYLAXIS OF NON-ALCOHOLIC FATTY LIVER DISEASE” (priority 2009, published 2012)
# Legend:
# [1] = tested on: fructose induced fatty liver; assay: Histopathological examination of NAFLD induced liver tissue; assay type: in vivo, Wistar rats; conditions: after 14 days; monotherapy or high dose combination: HCQ 160 mg/kg p.o., ATV 8 mg/kg p.o., MET 500 mg/kg
# Method: In this experiment 66 Wistar rats weighing 150-200 g of either sex were divided randomly into 11 groups consisting of six rats each. Group 1 (normal control) consisted of normal rats that neither received fructose nor any drug, Group 2 served as NAFLD induced control (NAFLD was induced in rats by replacing water with 10% fructose solution for two weeks) which received vehicle orally, Group 3 was NAFLD induced and treated with HCQ (160 mg/kg), Group 4 was NAFLD induced and treated with ATV (8 mg/kg), Group 5 was NAFLD induced and treated with MET (500 mg/kg), Group 6 was NAFLD induced and treated with low dose combination of HCQ (80 mg/kg) and MET (250 mg/kg). Group 7 was NAFLD induced and treated with high dose combination of HCQ (160 mg/kg) and MET (500 mg/kg). Group 8 was NAFLD induced and treated with low dose combination of HCQ (80 mg/kg) and ATV (4 mg/kg). Group 9 was NAFLD induced and treated with high dose combination of HCQ (160 mg/kg) and ATV (8 mg/kg). Group 10 was NAFLD induced and treated with low dose combination of ATV (4 mg/kg), HCQ (80 mg/kg) and MET (250 mg/kg) whereas Group 11 was NAFLD induced and treated with high dose combination of ATV (8 mg/kg), HCQ (160 mg/kg) and MET (500 mg/kg). The study drugs suspended in vehicle [0.1% w/v suspension of Tween 80 and carboxymethylcellulose (CMC) in water] were administered for 14 days. After 14 days treatment, all the animals were sacrificed under chloroform anesthesia and blood was collected for determination of blood glucose levels, triglyceride levels, SGPT, SGOT, alkaline phosphatase and total cholesterol using autoanalyser (Microlab 2000) Liver index was also calculated based upon the body weight and liver weight. At the end of the therapy histopathological evaluations were performed.
# [2] = tested on: fructose induced fatty liver; assay: Fructose induced fatty liver (NAFLD) in rats: biochemical parameters, body and liver weight, liver index after 14 days oral treatment; assay type: in vivo, Wistar rats; conditions: monotherapy or high dose combination: HCQ 160 mg/kg, ATV 8 mg/kg, MET 500 mg/kg, Mean ± S.D.; for Alk. PO4: alkaline phosphatase; for Glucose: blood; for Liver Index: calculated from body weight and liver weight; for TC (Total Cholesterol) / TG (Triglyceride): serum
# Excerpt: The study was based on the experiment on rats with fatty liver induced by fructose feeding and given oral doses of different strengths of the corresponding drug samples for 14 days. It was concluded from the study that the protection given by the combination therapy is more as compared to monotherapy. […] In this experiment 66 Wistar rats weighing 150-200 g of either sex were divided randomly into 11 groups consisting of six rats each. […] Group 7 was NAFLD induced and treated with high dose combination of HCQ (160 mg/kg) and MET (500 mg/kg). Group 8 was NAFLD induced and treated with low dose combination of HCQ (80 mg/kg) and ATV (4 mg/kg). Group 9 was NAFLD induced and treated with high dose combination of HCQ (160 mg/kg) and ATV (8 mg/kg). Group 10 was NAFLD induced and treated with low dose combination of ATV (4 mg/kg), HCQ (80 mg/kg) and MET (250 mg/kg) whereas Group 11 was NAFLD induced and treated with high dose combination of ATV (8 mg/kg), HCQ (160 mg/kg) and MET (500 mg/kg). […] At the end of the therapy histopathological evaluations were performed.
# [3] = patients on combined insulin and hydroxychloroquine therapy; average; cited from earlier work
# [4] = patients treated with hydroxychloroquine; cited from earlier work
SMILES,Histopathological examination of liver [1],Alk. PO4 [2] [U/L],Glucose [2] [mg/dL],Liver Index [2],SGOT [2] [U/L],SGPT [2] [U/L],TC (Total Cholesterol) [2] [mg/dL],TG (Triglyceride) [2] [mg/dL],Liver Weight [2] [g],Reduction of daily insulin dose [3] [%],Decrease in serum levels of cholesterol [4]
"CC(C)c1c(C(=O)Nc2ccccc2)c(-c2ccccc2)c(-c2ccc(F)cc2)n1CC[C@@H](O)C[C@@H](O)CC(=O)O [ATV, Atorvastatin]",the degree of hepatic injury including steatosis and fatty infiltration were attenuated,54.66 ± 2.58,159.33 ± 9.07,3.20 ± 0.24,114.00 ± 3.50,37.5 ± 2.42,137.66 ± 5.20,463.33 ± 12.12,–,–,–
"CN(C)C(=N)N=C(N)N [MET, Metformin]",Liver cells showed regeneration and repair in the form of nucleolation and absence of coarse fat vacuoles,61 ± 6.32,125.16 ± 6.24,4.50 ± 0.30,132.33 ± 8.98,43.66 ± 7.33,155.66 ± 10.85,516.33 ± 56.25,7.63 ± 0.30,–,–
"CCN(CCO)CCCC(C)Nc1ccnc2cc(Cl)ccc12 (stereo not shown) [HCQ, Hydroxychloroquine]",did not show any recovery from fatty change,63.16 ± 4.07,157.16 ± 7.93,4.53 ± 0.10,137.83 ± 10.59,44.83 ± 2.78,159.66 ± 10.23,556.66 ± 12.21,7.64 ± 0.33,30,approximately 10%
